In one series the target is T1, NHE1 (Homo sapiens, UniProt P19634).
T1 construct: expressed in transfected cells
The experiment in a line: NHE inhibition FLIPR test (intracellular pH recovery, BCECF) in transfected LAP-1 cells. In kind it is cell-based. The conditions noted are these: transfected cell line (parental LAP-1) expressing the NHE-1 subtype, pHi recovery after acidification. The procedure: The NHE inhibitory activities (IC50 values) of the compounds according to the invention were determined by a FLIPR test.
The test is performed in the FLIPR (Fluorescent Imaging Plate Reader) equipped with clear-bottomed and black-walled 96-well microtitration plates.
The growth medium for the transfected cells (Iscove +10% foetal calf serum) also comprises G418 as selection antibiotic to ensure the presence of transfected sequences.
The actual test begins by eliminating the growth medium and adding 100 μl of loading buffer per well (5 μM of BCECF-AM [2′,7′-bis(2-carboxyethyl)-5-(6)-carboxyfluoresceine acetoxymethyl ester] in 20 mM of NH4Cl, 115 mM of choline chloride, 1 mM of CaCl2, 5 mM of KCl, 20 mM of HEPES and 5 mM of glucose; pH 7.4 (adjusted with KOH). The cells are then incubated for 20 minutes at 37° C. This incubation results in the loading of the fluorescent dye into the cells, the fluorescence intensity of which depends on the pHi, and on the NH4Cl, which results in a slight basification of the cells.
The precursor BCECF-AM, a non-fluorescent dye, is, as an ester, capable of crossing the membrane. The actual dye, which is incapable of crossing the membrane, is released inside the cell by esterases.
After this 20-minute incubation, the loading buffer, which comprises NH4Cl and free BCECF-AM, is removed by washing three times in the cell washing device (Tecan Columbus), each wash being performed with 400 μl of washing buffer (133.8 mM of choline chloride, 4.7 mM of KCl, 1.25 mM of MgCl2, 1.25 mM of CaCl2, 0.97 mM of K2HPO4, 0.23 mM of KH2PO4, 5 mM of HEPES and 5 mM of glucose; pH 7.4 (adjusted with KOH)). The residual volume remaining in the wells is 90 μl (possibly between 50 and 125 μl). This washing step removes the free BCECF-AM and results in an intracellular acidification (pHi of 6.3-6.4) due to the removal of the external ammonium ions.
As the equilibrium of the intracellular ammonium with the aqueous ammonia and the protons, by removal of the extracellular ammonium and by the subsequent immediate crossing of the aqueous ammonia across the cell membrane, is disrupted, the washing process results in intracellular protons remaining, which is the cause of the intracellular acidification. This acidification can result finally in the death of the cells if it lasts long enough. It is important here for the washing buffer to be free of sodium (<1 mM), otherwise the extracellular sodium ions would result in an immediate increase in the pHi on account of the activity of the cloned NHE isoforms. It is also important for all the buffers used (loading buffer, washing buffer and regeneration buffer) not to contain any HCO3-ions, otherwise the presence of bicarbonate would result in the activation of bicarbonate-dependent systems that disrupt the pHi regulation, which systems are contained in the LAP-1 parental cell line.
The microtiter plates containing acidified cells are then transferred (up to 20 minutes after the acidification) to the FLIPR. In the FLIPR, the intracellular fluorescent dye is activated with light of a wavelength of 488 nm, which is generated by an argon laser, and the measuring parameters (laser power, illumination time and diaphragm of the […] camera integrated into the FLIPR) are chosen such that the average value of the fluorescent signal per well is between 30,000 and 35,000 relative fluorescence units.
The actual measurement in the FLIPR starts with a photograph being taken by the CCD camera every two seconds under software control. After 10 seconds, the increase in the intracellular pH is initiated by adding 90 μl of regeneration buffer (133.8 mM of NaCl, 4.7 mM of KCl, 1.25 mM of MgCl2, 1.25 mM of CaCl2, 0.97 mM of K2HPO4, 0.23 mM of KH2PO4, 10 mM of HEPES and 5 mM of glucose; pH 7.4 (adjusted with NaOH)) using a 96-well pipette device incorporated into the FLIPR. Some wells, to which is added pure regeneration buffer, serve as positive controls (100% NHE activity). […]

In general, IC50 refers to the concentration needed to halve the response being measured. The melting point is the temperature, or range, at which the solid turns liquid.

T1 sequence (P19634 whole entry, species assumed): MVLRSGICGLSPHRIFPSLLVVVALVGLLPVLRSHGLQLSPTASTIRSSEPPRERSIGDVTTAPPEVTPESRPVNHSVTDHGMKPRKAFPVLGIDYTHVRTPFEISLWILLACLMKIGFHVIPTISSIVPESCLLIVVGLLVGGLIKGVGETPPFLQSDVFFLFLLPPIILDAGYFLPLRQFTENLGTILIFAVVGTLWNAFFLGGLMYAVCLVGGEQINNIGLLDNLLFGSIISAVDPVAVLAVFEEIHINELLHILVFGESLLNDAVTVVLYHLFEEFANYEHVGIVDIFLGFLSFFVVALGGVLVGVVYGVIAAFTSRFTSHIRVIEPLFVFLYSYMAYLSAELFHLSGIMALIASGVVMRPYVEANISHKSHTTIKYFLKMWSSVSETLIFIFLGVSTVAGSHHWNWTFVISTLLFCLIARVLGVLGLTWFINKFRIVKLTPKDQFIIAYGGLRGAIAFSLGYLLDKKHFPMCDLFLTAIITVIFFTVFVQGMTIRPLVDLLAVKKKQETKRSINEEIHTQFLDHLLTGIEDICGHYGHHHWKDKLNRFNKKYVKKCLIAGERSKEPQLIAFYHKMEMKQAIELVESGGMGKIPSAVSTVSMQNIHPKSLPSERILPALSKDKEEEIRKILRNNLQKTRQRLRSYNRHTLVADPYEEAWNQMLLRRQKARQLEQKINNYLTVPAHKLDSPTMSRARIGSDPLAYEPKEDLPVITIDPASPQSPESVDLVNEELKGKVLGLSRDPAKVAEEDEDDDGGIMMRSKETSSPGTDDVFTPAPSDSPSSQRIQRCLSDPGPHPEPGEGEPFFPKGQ

Compound `CC(C)CN1C(=O)c2ccccc2C1CC(=O)N=C(N)N` (single isomer, unassigned; (-)) [Example 3, (−)-N-[2-(2-Isobutyl-3-oxo-2,3-dihydro-1H-isoindol-1-yl)acetyl]guanidine] gave a melting point of 264 °C. Also, on NHE1, the IC50 stood at 50 nM.

`CCCN1C(=O)c2ccccc2C1CC(=O)N=C(N)N` (stereo not drawn) [Example 5, N-[2-(3-Oxo-2-propyl-2,3-dihydro-1H-isoindol-1-yl)acetyl]guanidine] yielded a melting point of 229 °C. On NHE1, the IC50 stood at 92 nM. With `CCN1C(=O)c2ccccc2C1CC(=O)N=C(N)N` (stereo not drawn) [Example 6, N-[2-(2-Ethyl-3-oxo-2,3-dihydro-1H-isoindol-1-yl)acetyl]guanidine], the melting point amounted to 223 °C. Further, the IC50 at NHE1 turned out to be 211 nM. The like results for `NC(N)=NC(=O)CC1c2ccccc2C(=O)N1CC1CC1` (stereo not drawn) [Example 8, N-[2-(2-Cyclopropylmethyl-3-oxo-2,3-dihydro-1H-isoindol-1-yl)acetyl]guanidine] were, in that order, 229 °C and 63 nM.

Turning to `CC(C)CN1C(=O)c2ccc(C(C)(C)C)cc2C1CC(=O)N=C(N)N` (stereo not drawn) [Example 10, N-[2-(6-tert-Butyl-2-isobutyl-3-oxo-2,3-dihydro-1H-isoindol-1-yl)acetyl]guanidine], the melting point lay in the range of 214 to 215 °C. The IC50 at NHE1 worked out at 15 nM. Compound `CC(C)CN1C(=O)c2cc(C(C)(C)C)ccc2C1CC(=O)N=C(N)N` (stereo not drawn) [Example 11, N-[2-(5-tert-Butyl-2-isobutyl-3-oxo-2,3-dihydro-1H-isoindol-1-yl)acetyl]guanidine] showed a melting point of 262 to 263 °C. For the same compound, at NHE1, the IC50 worked out at 11 nM. On to `CC(C)CN1C(=O)c2cc(C(F)(F)F)ccc2C1CC(=O)N=C(N)N` (stereo not drawn) [Example 14, N-[2-(2-Isobutyl-3-oxo-5-trifluoromethyl-2,3-dihydro-1H-isoindol-1-yl)-acetyl]-guanidine], for which the melting point stood at 224 °C. Moreover, the IC50 at NHE1 was 102 nM.

Turning to `CC(C)CN1C(=O)c2ccc(C(F)(F)F)cc2C1CC(=O)N=C(N)N` (stereo not drawn) [Example 15, N-[2-(2-Isobutyl-3-oxo-6-trifluoromethyl-2,3-dihydro-1H-isoindol-1-yl)-acetyl]guanidine], the melting point was 154 °C. Moreover, the IC50 at NHE1 was found to be 16 nM. The compound `CC(C)CN1C(=O)c2cc(Cl)c(Cl)cc2C1CC(=O)N=C(N)N` (stereo not drawn) [Example 18, N-[2-(5,6-Dichloro-2-isobutyl-3-oxo-2,3-dihydro-1H-isoindol-1-yl)acetyl]guanidine] had a melting point of 154 °C. Further, the 50% inhibitory concentration (IC50) on NHE1 worked out at 26 nM. `CC(C)CN1C(=O)c2c(F)ccc(F)c2C1CC(=O)N=C(N)N` (stereo not drawn) [Example 19, N-[2-(4,7-Difluoro-2-isobutyl-3-oxo-2,3-dihydro-1H-isoindol-1-yl)acetyl]guanidine] registered a melting point of 212 °C. The IC50 on NHE1 was determined as 11 nM. As for `Cc1ccc2c(c1)C(=O)N(CC(C)C)C2CC(=O)N=C(N)N` (stereo not drawn) [Example 34, N-[2-(2-Isobutyl-5-methyl-3-oxo-2,3-dihydro-1H-isoindol-1-yl)acetyl]guanidine], the melting point stood at 266 °C. The IC50 at NHE1 was 25 nM.

In the case of `NC(N)=NC(=O)CC1c2cc(Cl)c(Cl)cc2C(=O)N1CC(F)(F)F` (stereo not drawn) [Example 44a, N-{2-[5,6-Dichloro-3-oxo-2-(2,2,2-trifluoro-ethyl)-2,3-dihydro-1H-isoindol-1-yl]-acetyl}-guanidine acetate], the IC50 at NHE1 turned out to be 2 nM.

For the compound `NC(N)=NC(=O)CC1c2cc(F)c(F)cc2C(=O)N1CC(F)(F)F` (stereo not drawn) [Example 45, N-{2-[5,6-Difluoro-3-oxo-2-(2,2,2-trifluoro-ethyl)-2,3-dihydro-1H-isoindol-1-yl]-acetyl}-guanidine], the IC50 on NHE1 was 212 nM. Consider “N-[2-(2-Cyclopropylmethyl-3-oxo-5-trifluoromethyl-2,3-dihydro-1H-isoindol-1-yl)acetyl]-guanidine and N-[2-(2-cyclopropylmethyl-3-oxo-6-trifluoromethyl-2,3-dihydro-1H-isoindol-1-yl)acetyl]guanidine [Example 25]”, for which the IC50 on NHE1 stood at 10 nM. For “N-[2-(3-Oxo-2-(4,4,4-trifluorobutyl)-5-trifluoromethyl-2,3-dihydro-1H-isoindol-1-yl)-acetyl]guanidine and N-[2-(3-Oxo-2-(4,4,4-trifluorobutyl)-6-trifluoromethyl-2,3-dihydro-1H-isoindol-1-yl)acetyl]guanidine [Example 29]”, on NHE1, the IC50 was 2340 nM.

As to “N-[2-(3-Oxo-5-trifluoromethyl-2-(3,3,3-trifluoropropyl)-2,3-dihydro-1H-isoindol-1-yl)-acetyl]guanidine and N-[2-(3-oxo-6-trifluoromethyl-2-(3,3,3-trifluoropropyl)-2,3-dihydro-1H-isoindol-1-yl)acetyl]guanidine [Example 27]”, the IC50 on NHE1 was 22 nM. Still for that read-out and setting: for “N-[2-(5-Bromo-2-isobutyl-3-oxo-2,3-dihydro-1H-isoindol-1-yl)acetyl]guanidine and N-[(6-Bromo-2-isobutyl-3-oxo-2,3-dihydro-1H-isoindol-1-yl)acetyl]guanidine [Example 13]” the value was 22 nM; for “N-[2-(5-Chloro-2-isobutyl-3-oxo-2,3-dihydro-1H-isoindol-1-yl)acetyl]guanidine and N-[(6-Chloro-2-isobutyl-3-oxo-2,3-dihydro-1H-isoindol-1-yl)acetyl]guanidine [Example 12]”, 7 nM.

“N-[2-(5-Chloro-3-oxo-2-(2,2,2-trifluoroethyl)-2,3-dihydro-1H-isoindol-1-yl)acetyl]-guanidine and N-[2-(6-chloro-3-oxo-2-(2,2,2-trifluoroethyl )-2,3-dihydro-1H-isoindol-1yl)acetyl]quanidine [Example 23]”: the IC50 on NHE1 came to 35 nM.

In the case of “N-[2-(5-Chloro-3-oxo-2-(3,3,3-trifluoropropyl)-2,3-dihydro-1H-isoindol-1-yl)acetyl]-guanidine and N-[2-(6-chloro-3-oxo-2-(3,3,3-trifluoropropyl)-2,3-dihydro-1H-isoindol-1-yl)acetyl]quanidine [Example 26]”, at NHE1, the IC50 is 8.6 nM. Consider “N-[2-(5-Chloro-3-oxo-2-(4,4,4-trifluorobutyl)-2,3-dihydro-1H-isoindol-1-yl)acetyl]-guanidine and N-[2-(6-chloro-3-oxo-2-(4,4,4-trifluorobutyl)-2,3-dihydro-1H-isoindol-1yl)acetyl]guanidine [Example 28]”, for which the IC50 on NHE1 was 88 nM. Consider “N-[2-(6-Chloro-2-cyclopropylmethyl-3-oxo-2,3-dihydro-1H-isoindol-1-yl )-acetyl]-guanidine and N-[2-(5-Chloro-2-cyclopropylmethyl-3-oxo-2,3-dihydro-1H-isoindol-1 yl)-acetyl]-guanidine [Example 24]”, for which the IC50 on NHE1 is 7.7 nM.
